# Source: US7495027B2, “3-aryl-4-hydroxyfuranone compounds and the human and animal health use thereof” (Wyeth, priority 2003, dated 2009)
# Target: E. coli Uridine-diphosphate-N-acetvimuramoyl: L-alanine lipase, MurC (Escherichia coli, UniProt P17952)
# Assay: Inhibitory activity against MurC (E. coli)
# Type: biochemical
# Settings: (E) E. coli enzyme
# Sequence of E. coli Uridine-diphosphate-N-acetvimuramoyl: L-alanine lipase, MurC (P17952 whole entry): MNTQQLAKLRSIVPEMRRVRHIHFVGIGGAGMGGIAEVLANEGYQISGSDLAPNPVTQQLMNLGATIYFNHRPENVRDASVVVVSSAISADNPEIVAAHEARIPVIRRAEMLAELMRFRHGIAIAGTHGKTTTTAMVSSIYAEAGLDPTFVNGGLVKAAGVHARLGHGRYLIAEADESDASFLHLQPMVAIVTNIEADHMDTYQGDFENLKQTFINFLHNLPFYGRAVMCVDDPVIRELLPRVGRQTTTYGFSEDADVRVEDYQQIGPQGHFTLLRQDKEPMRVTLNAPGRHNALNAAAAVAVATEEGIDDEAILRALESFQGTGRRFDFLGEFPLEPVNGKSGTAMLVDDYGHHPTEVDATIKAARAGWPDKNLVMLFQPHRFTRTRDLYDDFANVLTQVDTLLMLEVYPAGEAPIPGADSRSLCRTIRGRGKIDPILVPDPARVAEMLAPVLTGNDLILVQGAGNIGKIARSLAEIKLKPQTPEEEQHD
row,Structure (SMILES),MurC IC50 [µg/mL]
1,O=C1O/C(=C\c2ccc(-c3cccc(C(F)(F)F)c3)cc2)C(O)=C1c1cccc(C(F)(F)F)c1,11
2,O=C1O/C(=C\c2ccc(-c3cc(Cl)cc(Cl)c3)cc2)C(O)=C1c1cc(Cl)cc(Cl)c1,17
3,O=C1OC(=Cc2ccc(-c3ccccc3)cc2)C(O)=C1c1cccc(C(F)(F)F)c1 (mixture of isomers) [Example 11],4
4,Cc1ccc(C=C2OC(=O)C(c3ccc(Cl)cc3)=C2O)s1 (mixture of isomers) [Example 13],4
5,O=C1OC(=Cc2cccc3ccccc23)C(O)=C1c1ccc(C=NO)cc1 (mixture of isomers) [Example 73],19
6,Cc1ccc(C=C2OC(=O)C(c3ccc(Cl)cc3)=C2O)s1 [Example 14],13
7,O=C1OC(=CC2CCCCC2)C(O)=C1c1cccc(C(F)(F)F)c1 [Example 16],7
8,O=C1O/C(=C\C2CCCCC2)C(O)=C1c1cccc(C(F)(F)F)c1 [Example 17],10
9,O=C1O/C(=C\c2cccc(C(F)(F)F)c2)C(O)=C1c1ccc2ccccc2c1 [Example 42],6
10,O=C1O/C(=C\C2CCCCC2)C(O)=C1c1ccc2ccccc2c1 [Example 51],9
11,CCOC(=O)c1cccc(C2=C(O)C(=Cc3cccc4ccccc34)OC2=O)c1 [Example 75],18
12,O=C1O/C(=C\c2cccc3ccccc23)C(O)=C1c1cccc(C=NO)c1 [Example 77],9
13,O=C1O/C(=C\c2cccc(-c3cccc(Cl)c3)c2)C(O)=C1c1cccc(Cl)c1 [Example 134],5
14,O=C1O/C(=C\c2cccc(-c3cc(Cl)cc(Cl)c3)c2)C(O)=C1c1cc(Cl)cc(Cl)c1 [Example 136],11

# Same assay, conditions: (E) E. coli enzyme; read-out: MurC IC50 (converted)
row,Structure (SMILES),IC50 [µM]
1,O=C1O/C(=C\c2ccc(-c3ccccc3)cc2)C(O)=C1c1cccc(C(F)(F)F)c1 [Example 10],9.79
2,O=C1O/C(=C\C2CCCCC2)C(O)=C1c1ccc(Cl)cc1 [Example 15],55.8
3,COc1ccccc1-c1ccc(/C=C2\OC(=O)C(c3cc(Cl)cc(Cl)c3)=C2O)cc1OC [Example 19],12.8
4,COc1ccccc1-c1ccc(/C=C2\OC(=O)C(c3ccc(Cl)c(Cl)c3)=C2O)cc1OC [Example 20],23.4
5,O=C1O/C(=C\c2ccc(Cl)cc2)C(O)=C1c1ccc2ccccc2c1 [Example 43],11.5
6,O=C1O/C(=C\c2cccc3ccccc23)C(O)=C1c1cccc2ccccc12 [Example 47],30.2
7,O=C1O/C(=C\c2ccc3ccccc3c2)C(O)=C1c1ccc2ccccc2c1 [Example 52],46.7
8,O=C1O/C(=C\c2ccc(-c3ccccc3)cc2)C(O)=C1c1ccc(Cl)cc1 [Example 53],13.3
9,O=C1O/C(=C\c2ccc3ccccc3c2)C(O)=C1c1ccc(Cl)cc1 [Example 54],14.3
10,O=C1O/C(=C\c2ccc3ccccc3c2)C(O)=C1c1cccc2ccccc12 [Example 56],13.7
11,O=C1O/C(=C\c2ccc(-c3ccccc3)cc2)C(O)=C1c1cc(Cl)cc(Cl)c1 [Example 67],14.7
12,O=C1O/C(=C\c2cccc3ccccc23)C(O)=C1c1cc(Cl)cc(Cl)c1 [Example 70],13
13,O=C1O/C(=C\c2cccc3ccccc23)C(O)=C1c1ccc(C(F)(F)F)cc1 [Example 71],28.8
14,COc1cccc(C2=C(O)/C(=C/c3cccc4ccccc34)OC2=O)c1 [Example 72],> 72.6
15,COC(=O)c1ccc(C2=C(O)/C(=C/c3cccc4ccccc34)OC2=O)cc1 [Example 74],51
16,O=Cc1cccc(C2=C(O)/C(=C/c3cccc4ccccc34)OC2=O)c1 [Example 76],14.6
17,O=C1O/C(=C\C2CCCCC2)C(O)=C1c1ccc(-c2ccccc2)cc1 [Example 100],37.5
18,O=C1O/C(=C\c2cccnc2)C(O)=C1c1ccc(-c2ccccc2)cc1 [Example 101],52.7
19,Cc1ccc(/C=C2\OC(=O)C(c3ccc(-c4ccccc4)cc3)=C2O)s1 [Example 104],13.9
20,O=C1O/C(=C\c2cccc(C(F)(F)F)c2)C(O)=C1c1ccc(-c2ccccc2)c(F)c1 [Example 106],21.1
21,O=C1O/C(=C\c2ccccc2-c2ccc(Cl)cc2)C(O)=C1c1ccc(Cl)cc1 [Example 137],41.5
22,O=C1O/C(=C\c2ccc(Cl)cc2)C(O)=C1c1ccc(-c2ccccc2)c(F)c1 [Example 138],12.7

# Same assay, conditions: MurC IC50, (E) E. coli enzyme
row,Structure (SMILES),IC50 [µM]
1,"O=C1O/C(=C\c2ccc(C(F)(F)F)cc2)C(O)=C1c1ccc(-c2ccccc2)cc1 [R=H, R1=4-(biphenyl), R2=4-CF3—C6H4]",12.2
2,"O=C1O/C(=C\c2ccc(-c3ccc(Cl)cc3)cc2)C(O)=C1c1ccc(Cl)cc1 [R=H, R1=4-Cl—C6H4, R2=4-(4′-Cl-biphenyl)]",29.3
3,"O=C1O/C(=C\c2cccc3ccccc23)C(O)=C1c1ccc(-c2ccccc2)cc1 [R=H, R1=4-biphenyl, R2=1-naphthyl]",15.4

# Target: E. coli Uridine-diphosphate-N-acetylmuramoyl-L-alanine: D-glutamate liease, MurD (Escherichia coli, UniProt P14900)
# Sequence (P14900 whole entry): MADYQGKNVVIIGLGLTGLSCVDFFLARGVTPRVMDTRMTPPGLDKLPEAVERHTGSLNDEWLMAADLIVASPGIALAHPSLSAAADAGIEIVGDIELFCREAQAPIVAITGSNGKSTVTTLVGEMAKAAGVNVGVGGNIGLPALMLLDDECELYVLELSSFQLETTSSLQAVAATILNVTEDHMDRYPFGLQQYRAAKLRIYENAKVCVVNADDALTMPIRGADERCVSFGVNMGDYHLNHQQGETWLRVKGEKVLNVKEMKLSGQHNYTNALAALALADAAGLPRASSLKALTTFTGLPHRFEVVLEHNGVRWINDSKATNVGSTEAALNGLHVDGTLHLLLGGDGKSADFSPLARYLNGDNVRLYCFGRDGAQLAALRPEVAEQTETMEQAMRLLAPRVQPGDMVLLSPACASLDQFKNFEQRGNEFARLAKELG
# Assay: biochemical
# Settings: (E) E. coli enzyme
# Outline: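 Final buffer 83 mM Tris/HCl pH 8.0, 50 mM MgCl2, 2 mM ATP. Compounds from 10 mg/mL DMSO stocks diluted to 100 μg/mL in 50 mM Tris/HCl pH 8.5 (working solution, not final assay level).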
Structure (SMILES),MurD IC50 [µg/mL],IC50 [µM]
O=C1O/C(=C\c2ccc(-c3cccc(C(F)(F)F)c3)cc2)C(O)=C1c1cccc(C(F)(F)F)c1,24,
O=C1O/C(=C\c2ccc(-c3cc(Cl)cc(Cl)c3)cc2)C(O)=C1c1cc(Cl)cc(Cl)c1,6,
O=C1OC(=Cc2ccc(-c3ccccc3)cc2)C(O)=C1c1cccc(C(F)(F)F)c1 (mixture of isomers) [Example 11],21,
Cc1ccc(C=C2OC(=O)C(c3ccc(Cl)cc3)=C2O)s1 (mixture of isomers) [Example 13],> 25,
O=C1O/C(=C\c2ccc(-c3ccccc3)cc2)C(O)=C1c1cccc(C(F)(F)F)c1 [Example 10],,51.4
O=C1O/C(=C\C2CCCCC2)C(O)=C1c1ccc(Cl)cc1 [Example 15],,> 82
COc1ccccc1-c1ccc(/C=C2\OC(=O)C(c3cc(Cl)cc(Cl)c3)=C2O)cc1OC [Example 19],,> 53.3
COc1ccccc1-c1ccc(/C=C2\OC(=O)C(c3ccc(Cl)c(Cl)c3)=C2O)cc1OC [Example 20],,> 53.3
O=C1O/C(=C\c2ccc(Cl)cc2)C(O)=C1c1ccc2ccccc2c1 [Example 43],,> 71.7
O=C1O/C(=C\c2cccc3ccccc23)C(O)=C1c1cccc2ccccc12 [Example 47],,> 68.6
O=C1O/C(=C\C2CCCCC2)C(O)=C1c1ccc2ccccc2c1 [Example 51],,> 78
O=C1O/C(=C\c2ccc3ccccc3c2)C(O)=C1c1ccc2ccccc2c1 [Example 52],,63.1
O=C1O/C(=C\c2ccc(-c3ccccc3)cc2)C(O)=C1c1ccc(Cl)cc1 [Example 53],,13.3
O=C1O/C(=C\c2ccc3ccccc3c2)C(O)=C1c1ccc(Cl)cc1 [Example 54],,> 71.7
O=C1O/C(=C\c2ccc3ccccc3c2)C(O)=C1c1cccc2ccccc12 [Example 56],,> 68.6
O=C1O/C(=C\c2ccc(-c3ccccc3)cc2)C(O)=C1c1cc(Cl)cc(Cl)c1 [Example 67],,22
O=C1O/C(=C\c2ccc(-c3ccccc3)cc2)C(O)=C1c1cccc(Cl)c1 [Example 69],,50.7
O=C1O/C(=C\c2cccc3ccccc23)C(O)=C1c1cc(Cl)cc(Cl)c1 [Example 70],,44.4
O=C1O/C(=C\c2cccc3ccccc23)C(O)=C1c1ccc(C(F)(F)F)cc1 [Example 71],,> 65.4
COc1cccc(C2=C(O)/C(=C/c3cccc4ccccc34)OC2=O)c1 [Example 72],,> 72.6
COC(=O)c1ccc(C2=C(O)/C(=C/c3cccc4ccccc34)OC2=O)cc1 [Example 74],,> 67.1
O=Cc1cccc(C2=C(O)/C(=C/c3cccc4ccccc34)OC2=O)c1 [Example 76],,67.2
O=C1O/C(=C\C2CCCCC2)C(O)=C1c1ccc(-c2ccccc2)cc1 [Example 100],,> 72.2
O=C1O/C(=C\c2cccnc2)C(O)=C1c1ccc(-c2ccccc2)cc1 [Example 101],,> 73.2
Cc1ccc(/C=C2\OC(=O)C(c3ccc(-c4ccccc4)cc3)=C2O)s1 [Example 104],,> 69.4
O=C1O/C(=C\c2cccc(-c3cccc(Cl)c3)c2)C(O)=C1c1cccc(Cl)c1 [Example 134],6,
O=C1O/C(=C\c2cccc(-c3cc(Cl)cc(Cl)c3)c2)C(O)=C1c1cc(Cl)cc(Cl)c1 [Example 136],,12.5
"O=C1O/C(=C\c2ccc(C(F)(F)F)cc2)C(O)=C1c1ccc(-c2ccccc2)cc1 [R=H, R1=4-(biphenyl), R2=4-CF3—C6H4]",,29.4
"O=C1O/C(=C\c2ccc(-c3ccc(Cl)cc3)cc2)C(O)=C1c1ccc(Cl)cc1 [R=H, R1=4-Cl—C6H4, R2=4-(4′-Cl-biphenyl)]",,14.7
"O=C1O/C(=C\c2cccc3ccccc23)C(O)=C1c1ccc(-c2ccccc2)cc1 [R=H, R1=4-biphenyl, R2=1-naphthyl]",,> 64

# Tested on: not given
# Assay: not given
# Settings: not given
row,Structure (SMILES),melting point
1,O=C1O/C(=C\c2ccc(-c3ccccc3)cc2)C(O)=C1c1cccc(C(F)(F)F)c1 [Example 10],240 to 241.5 °C
2,O=C1O/C(=C\C2CCCCC2)C(O)=C1c1ccc(Cl)cc1 [Example 15],200 to 205 °C
3,O=C1O/C(=C\c2ccc(Cl)cc2)C(O)=C1c1ccc2ccccc2c1 [Example 43],243 to 250 °C
4,O=C1O/C(=C\c2cccc3ccccc23)C(O)=C1c1cccc2ccccc12 [Example 47],216 to 218 °C
5,O=C1O/C(=C\c2ccc3ccccc3c2)C(O)=C1c1ccc2ccccc2c1 [Example 52],285 to 290 °C
6,O=C1O/C(=C\c2ccc(-c3ccccc3)cc2)C(O)=C1c1ccc(Cl)cc1 [Example 53],282 to 285 °C
7,O=C1O/C(=C\c2ccc3ccccc3c2)C(O)=C1c1ccc(Cl)cc1 [Example 54],284 to 286 °C
8,O=C1O/C(=C\c2ccc3ccccc3c2)C(O)=C1c1cccc2ccccc12 [Example 56],235 to 237 °C
9,O=C1O/C(=C\c2ccc(-c3ccccc3)cc2)C(O)=C1c1cc(Cl)cc(Cl)c1 [Example 67],279 to 280 °C
10,O=C1O/C(=C\c2ccc(-c3ccccc3)cc2)C(O)=C1c1cccc(Cl)c1 [Example 69],248 to 250 °C
11,O=C1O/C(=C\c2cccc3ccccc23)C(O)=C1c1cc(Cl)cc(Cl)c1 [Example 70],244 to 245 °C
12,O=C1O/C(=C\c2cccc3ccccc23)C(O)=C1c1ccc(C(F)(F)F)cc1 [Example 71],245 to 247 °C
13,COc1cccc(C2=C(O)/C(=C/c3cccc4ccccc34)OC2=O)c1 [Example 72],214 to 216 °C
14,COC(=O)c1ccc(C2=C(O)/C(=C/c3cccc4ccccc34)OC2=O)cc1 [Example 74],242 to 244 °C
15,O=Cc1cccc(C2=C(O)/C(=C/c3cccc4ccccc34)OC2=O)c1 [Example 76],220 to 221 °C
16,O=C1O/C(=C\C2CCCCC2)C(O)=C1c1ccc(-c2ccccc2)cc1 [Example 100],204 to 207 °C
17,O=C1O/C(=C\c2cccnc2)C(O)=C1c1ccc(-c2ccccc2)cc1 [Example 101],252 to 255 °C
18,Cc1ccc(/C=C2\OC(=O)C(c3ccc(-c4ccccc4)cc3)=C2O)s1 [Example 104],235 to 240 °C
19,O=C1O/C(=C\c2ccc(Cl)cc2)C(O)=C1c1ccc(-c2ccccc2)c(F)c1 [Example 138],255 to 258 °C
20,O=C1O/C(=C\c2ccc(-c3ccccc3)cc2)C(O)=C1c1csc2ccccc12 [Example 143],270 °C
21,O=C1O/C(=C\c2ccc(-c3ccccc3)cc2)C(O)=C1c1cccs1 [Example 144],213 °C (dec.)

# Tested on: larvae of blowfly, Lucilia sericata
# Assay: whole plant or invertebrate
# Settings: dose rate of 20 ppm; Lucilia sericata larvae on treated filter paper with bovine serum; assessed at 24 h
# Description: Comparative Evaluation of the Efficacy of a 3-Aryl-4-hydroxyfuranone Compound Against Blowfly Larvae
# In this evaluation, filter paper discs are treated with an acetone solution of test compound and allowed to dry. Bovine serum and newly emerged larvae of blowfly, Lucilia sericata, are added to the treated filter paper. Mortality is assessed at 24 h and 48 h. When more than one evaluation is performed, the data are averaged.
row,Structure (SMILES),% Mortality 24 h [%]
1,O=C1O/C(=C\c2ccc(-c3cccc(C(F)(F)F)c3)cc2)C(O)=C1c1cccc(C(F)(F)F)c1,0

# Same assay, conditions: dose rate of 20 ppm; Lucilia sericata larvae on treated filter paper with bovine serum; assessed at 24 h; read-out: % Mortality 24 h
row,Structure (SMILES),mortality at 20 ppm [%]
1,O=C1O/C(=C\c2ccc(-c3cc(Cl)cc(Cl)c3)cc2)C(O)=C1c1cc(Cl)cc(Cl)c1,0
2,"O=C1O/C(=C\c2ccc(C(F)(F)F)cc2)C(O)=C1c1ccc(-c2ccccc2)cc1 [R=H, R1=4-(biphenyl), R2=4-CF3—C6H4]",0
3,"O=C1O/C(=C\c2ccc(-c3ccc(Cl)cc3)cc2)C(O)=C1c1ccc(Cl)cc1 [R=H, R1=4-Cl—C6H4, R2=4-(4′-Cl-biphenyl)]",0
4,"O=C1O/C(=C\c2cccc3ccccc23)C(O)=C1c1ccc(-c2ccccc2)cc1 [R=H, R1=4-biphenyl, R2=1-naphthyl]",100

# Same assay, conditions: dose rate of 20 ppm; Lucilia sericata larvae on treated filter paper with bovine serum; assessed at 48 h
row,Structure (SMILES),% Mortality 48 h [%]
1,O=C1O/C(=C\c2ccc(-c3cccc(C(F)(F)F)c3)cc2)C(O)=C1c1cccc(C(F)(F)F)c1,0

# Same assay, conditions: dose rate of 20 ppm; Lucilia sericata larvae on treated filter paper with bovine serum; assessed at 48 h; read-out: % Mortality 48 h
row,Structure (SMILES),mortality at 20 ppm [%]
1,O=C1O/C(=C\c2ccc(-c3cc(Cl)cc(Cl)c3)cc2)C(O)=C1c1cc(Cl)cc(Cl)c1,0
2,"O=C1O/C(=C\c2ccc(C(F)(F)F)cc2)C(O)=C1c1ccc(-c2ccccc2)cc1 [R=H, R1=4-(biphenyl), R2=4-CF3—C6H4]",0
3,"O=C1O/C(=C\c2ccc(-c3ccc(Cl)cc3)cc2)C(O)=C1c1ccc(Cl)cc1 [R=H, R1=4-Cl—C6H4, R2=4-(4′-Cl-biphenyl)]",0
4,"O=C1O/C(=C\c2cccc3ccccc23)C(O)=C1c1ccc(-c2ccccc2)cc1 [R=H, R1=4-biphenyl, R2=1-naphthyl]",100
